One test concerns the target D3R (Homo sapiens, UniProt P35462). Kind of test: BRET1-based GoA activation assay, D3R. The note with it: for efficacy type at D3R (in words): GoA BRET; for efficacy type at D3R (in words) / Emax in the Go BRET assay, D3R: HEK293T; for Emax in the Go BRET assay, D3R: dose-response 100 pM to 100 µM. Type of test: cell-based.
The next test has as its target D2R (Homo sapiens, UniProt P14416). The test can be described thus: BRET1-based GoA activation assay, D2R. The format is cell-based.
The mark [1] stands for this setting: HEK293T, dose-response 100 pM to 100 µM.

“Also recorded” adds a separate entry of the source. Read-outs that look alike come from different tables or passages of the source.

Sequence of D3R (P35462 whole entry): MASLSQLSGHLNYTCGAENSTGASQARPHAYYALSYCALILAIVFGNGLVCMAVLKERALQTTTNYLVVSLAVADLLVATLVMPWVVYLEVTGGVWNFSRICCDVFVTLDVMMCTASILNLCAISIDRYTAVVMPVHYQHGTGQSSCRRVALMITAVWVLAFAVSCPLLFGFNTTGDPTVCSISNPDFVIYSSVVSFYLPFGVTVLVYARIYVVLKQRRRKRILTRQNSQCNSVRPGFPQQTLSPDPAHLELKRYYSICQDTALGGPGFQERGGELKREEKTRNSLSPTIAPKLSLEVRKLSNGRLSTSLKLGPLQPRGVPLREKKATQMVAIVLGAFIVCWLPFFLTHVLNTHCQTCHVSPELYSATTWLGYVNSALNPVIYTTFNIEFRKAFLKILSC
Sequence of D2R (P14416 1-414 isoform P14416-2): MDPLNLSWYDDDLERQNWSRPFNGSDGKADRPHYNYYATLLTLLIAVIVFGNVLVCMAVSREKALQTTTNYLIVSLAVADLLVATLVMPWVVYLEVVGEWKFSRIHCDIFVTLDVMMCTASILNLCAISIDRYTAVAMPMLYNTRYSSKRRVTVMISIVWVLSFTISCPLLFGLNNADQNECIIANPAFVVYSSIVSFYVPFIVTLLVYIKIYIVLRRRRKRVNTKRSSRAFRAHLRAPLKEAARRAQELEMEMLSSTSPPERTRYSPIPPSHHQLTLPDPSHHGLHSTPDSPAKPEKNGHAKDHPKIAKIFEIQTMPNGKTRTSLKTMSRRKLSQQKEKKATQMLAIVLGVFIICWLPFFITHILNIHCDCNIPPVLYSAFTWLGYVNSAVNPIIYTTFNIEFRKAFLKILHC

For the compound `CCCCNC(=O)c1cc2ccccc2[nH]1` [Compound 18, N-Butyl-1H-indole-2-carboxamide], on D3R, the “efficacy type at D3R (in words)” value was “no activity; also recorded: failed to activate” and the “Emax in the Go BRET assay, D3R” value is listed as −0.65 % of the Emax of dopamine.
Take `CCC(=O)NCCCCN1CCN(c2cccc(Cl)c2Cl)CC1` [Compound 16]: the “Emax in the Go BRET assay, D3R” value at D3R is given as 22.32 % of the Emax of dopamine.
The same measure, in the same setting: as for `CCCN1CCN(c2cccc(Cl)c2Cl)CC1` [Compound 13, 1-(2,3-Dichlorophenyl)-4-propylpiperazine], the figure is 17.53 % of the Emax of dopamine.
`NCCc1ccc(O)c(O)c1` [dopamine, reference compound]: the “efficacy type at D2R (in words)” value at D2R was “full agonists”.
Consider `O=C(NCCCCN1CCN(c2cccc(Cl)c2Cl)CC1)c1cc2ccccc2[nH]1` [Compound 4, N-(4-(4-(2,3-dichlorophenyl)piperazin-1-yl)butyl)-1H-indole-2-carboxamide], for which, at D3R, the “efficacy type at D3R (in words)” value is “weak partial agonism” and the “Emax in the Go BRET assay, D3R” value is 16.00 % of the Emax of dopamine. The “efficacy type at D2R (in words)” value on D2R (GoA BRET, HEK293T) is “weak partial agonism”.
In the case of `CN1CCN(c2cccc(Cl)c2Cl)CC1` [Compound 10, 1-(2,3-Dichlorophenyl)-4-methylpiperazine], the “Emax in the Go BRET assay, D3R” value on D3R was 37.53 % of the Emax of dopamine.
Same read-out and setting: then `OCCN1CCN(c2cccc(Cl)c2Cl)CC1` [Compound 12, 2-(4-(2,3-Dichlorophenyl)piperazin-1-yl)ethanol], with 21.08 % of the Emax of dopamine.
As for `COc1ccccc1N1CCN(CCCCNC(=O)c2cc3ccccc3[nH]2)CC1` [Compound 5], at D3R, the “efficacy type at D3R (in words)” value was “weak partial agonism” and the “Emax in the Go BRET assay, D3R” value is reported as 8.38 % of the Emax of dopamine. Further, the “efficacy type at D2R (in words)” value on D2R (GoA BRET, HEK293T) is “weak partial agonism”. The “Emax in the Go BRET assay, D2R” value on D2R (setting [1]) is listed as 13.65 % of the Emax of dopamine.
For the compound `COc1ccccc1N1CCNCC1` [Compound 9, 2-OCH3-4-phenylpiperazine], on D3R, the “efficacy type at D3R (in words)” value is on record as “only minimal efficacy” and the “Emax in the Go BRET assay, D3R” value is 6.27 % of the Emax of dopamine. Besides, on D2R, the “Emax in the Go BRET assay, D2R” value is reported as 14.02 % of the Emax of dopamine and the “efficacy type at D2R (in words)” value was “only minimal efficacy”.
Turning to `CCC(=O)NCCCCN1CCN(c2ccccc2OC)CC1` [Compound 17], at D3R, the “Emax in the Go BRET assay, D3R” value is listed as 7.37 % of the Emax of dopamine.
`CCCCN1CCN(c2cccc(Cl)c2Cl)CC1` [Compound 14, 1-Butyl-4-(2,3-dichlorophenyl)piperazine]: the “Emax in the Go BRET assay, D3R” value at D3R is listed as 14.13 % of the Emax of dopamine.
Consider `O=C(NCC[C@@H](O)CN1CCN(c2cccc(Cl)c2Cl)CC1)c1cc2ccccc2[nH]1` [Compound 2], for which the “efficacy type at D3R (in words)” value at D3R is “weak partial agonism”.
Turning to `CCCCN1CCN(c2ccccc2OC)CC1` [Compound 15, 1-Butyl-4-(2-methoxyphenyl)piperazine], on D3R, the “Emax in the Go BRET assay, D3R” value is recorded as 9.40 % of the Emax of dopamine.
Same read-out and setting: then `COc1ccccc1N1CCN(C)CC1` [Compound 11, 1-(2-Methoxyphenyl)-4-methylpiperazine], with 7.11 % of the Emax of dopamine.
For the compound `CCN1CCCC1CNC(=O)c1cc(S(N)(=O)=O)ccc1OC` (stereo not shown) [Compound 7, sulpiride, reference compound], at D3R, the “efficacy type at D3R (in words)” value is “inverse agonist” and the “Emax in the Go BRET assay, D3R” value is on record as −6.83 % of the Emax of dopamine. Further, the “shift of dopamine dose-response curve at D3R” value on D3R (sulpiride 100 nM) is listed as “dramatically right-shifted the potency of dopamine”. In addition, the “efficacy type at D2R (in words)” value at D2R (GoA BRET, HEK293T) is reported as “inverse agonist”. For the same compound, the “Emax in the Go BRET assay, D2R” value on D2R (setting [1]) was −6.26 % of the Emax of dopamine. Besides, the “shift of dopamine dose-response curve at D2R” value at D2R (sulpiride 100 nM) is listed as “dramatically right-shifted the potency of dopamine”.
On to `Clc1cccc(N2CCNCC2)c1Cl` [Compound 8, 2,3-diCl-4-phenylpiperazine], for which, at D3R, the “efficacy type at D3R (in words)” value is given as “substantial partial agonism” and the “Emax in the Go BRET assay, D3R” value is 57.27 % of the Emax of dopamine. Besides, on D2R (GoA BRET, HEK293T), the “efficacy type at D2R (in words)” value was “substantial partial agonism”. Further, the “Emax in the Go BRET assay, D2R” value on D2R (setting [1]) is given as 40.03 % of the Emax of dopamine.
Turning to `CCc1cc(Cl)c(OC)c(C(=O)NC[C@@H]2CCCN2CC)c1O` [Compound 3, eticlopride, reference compound], on D3R, the “efficacy type at D3R (in words)” value was “inverse agonist”.

Values taken from paper PMC3415572 (Journal of medicinal chemistry, 2012).
